For the assay, the system named is high-fat diet-induced obesity animal models. The conditions noted are these: oral formate vs high-fat diet control group. An excerpt:
In order to investigate whether formic acid actually has an anti-obesity effect, the present inventors orally administered formate into high-fat diet-induced obesity animal models. […] The patent application procedure of the above-described contents is under way, separately from the present disclosure.

Structures are written as SMILES.

On to `O=CO` [formate], for which the blood cholesterol content entry is on record as “significantly reduced”, the blood triglyceride content result is recorded as “significantly reduced”, the body weight increase result is “inhibited” and the fat cell size result is listed as “decreased”. Further, the “kidney fat weight value” is “lowered”.

For the origin of these results see patent US11564955B2, “Composition including, as active ingredient, strain having ability to produce formic acid for preventing or treating obesity or metabolic syndromes caused by obesity” (KOREA FOOD RESEARCH INSTITUTE, priority 2016, dated 2023).
